Assay results from ChEMBL document CHEMBL1133786, “Synthesis and dopaminergic properties of the two enantiomers of 3-(3,4-dimethylphenyl)-1-propylpiperidine, a potent and selective dopamine D4 receptor ligand” (Bioorg Med Chem Lett, 2001).

Key:
[1] = Binding affinity for dopamine D4-like receptor labelled with [3H]YM-09151-2 in retina; assay type: tissue-based, Bos taurus
[2] = Binding affinity for dopamine D2-D3 like receptor labelled with [3H]YM-09151-2 in striatum; assay type: tissue-based, Bos taurus
D(1A) dopamine receptor = D(1A) dopamine receptor (Bos taurus, UniProt Q95136); assay: Binding affinity for dopamine D1-like receptor labelled with [3H]SCH-23390 in retina; assay type: tissue-based
Chain of D(1A) dopamine receptor (Q95136 whole entry): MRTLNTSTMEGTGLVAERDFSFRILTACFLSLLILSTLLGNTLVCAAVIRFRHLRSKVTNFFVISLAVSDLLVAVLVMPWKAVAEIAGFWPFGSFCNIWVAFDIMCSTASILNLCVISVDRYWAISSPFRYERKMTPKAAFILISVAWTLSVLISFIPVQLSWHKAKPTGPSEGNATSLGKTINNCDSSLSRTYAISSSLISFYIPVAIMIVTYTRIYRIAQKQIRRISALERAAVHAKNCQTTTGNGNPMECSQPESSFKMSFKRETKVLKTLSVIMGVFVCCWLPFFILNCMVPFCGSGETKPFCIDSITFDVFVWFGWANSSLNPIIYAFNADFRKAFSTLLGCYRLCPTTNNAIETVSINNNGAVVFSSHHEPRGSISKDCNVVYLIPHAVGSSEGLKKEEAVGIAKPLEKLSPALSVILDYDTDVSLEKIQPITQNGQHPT

SMILES | Ki [1] [µM] | Ki [2] [µM] | Ki (D(1A) dopamine receptor) [µM]
CCCN1CCC[C@@H](c2cccc(O)c2)C1 [PRECLAMOL] | 0.187 | 0.008 | 
CCCN1CCC[C@H](c2cccc(O)c2)C1 | 0.397 | 0.404 | 
CCCN1CCC[C@@H](c2ccc(C)c(C)c2)C1 | 0.023 | 5 | > 100
NCCc1ccc(O)c(O)c1 [DOPAMINE] | 0.015 | 0.13 | 
CCCN1CCC[C@@H]2Cc3n[nH]cc3C[C@H]21 [QUINPIROLE] | 0.059 | 0.241 | 
Cc1cccc(C(=O)NCN2CCN(c3ccccc3C#N)CC2)c1 [PD-168,077] | 0.025 | 18.3 | 
CCCN1CCCC(c2ccc(C)c(C)c2)C1 (centres undefined) | 0.01 | 11 | > 100
CCCN1CCC[C@H](c2ccc(C)c(C)c2)C1 | 0.004 | > 100 | > 100
